Measured values: patent US4914197A, “Novel phosphoric diesters” (Senju Pharmaceutical Co., Ltd., priority 1986, dated 1990)
“And” between values parts separate entries of the source, which are not always exact repeats. Equal entries are not always repeated.

Legend:
[1] = test system: rabbits eye; assay: Topical antiinflammatory effect, anterior chamber paracentesis inflammation model of the rabbits eye; assay type: in vivo, female white rabbits; details: 0.1% ophthalmic solution; for % Inhibition: inhibition of increase in protein of secondary aqueous humor vs control; for Increase in protein: secondary minus primary aqueous humor (1.5 hours apart), 10 μl at 2, 1 and 0.5 hour before paracentesis, control 25.5
Experimental: The antiinflammatory effect of the compound according to the present invention was investigated in the anterior chamber paracentesis inflammation model of the rabbits eye.
Method: Using female white rabbits, a 0.1% ophthalmic solution of L-ascorbyl tocopheryl phosphate sodium and, as a control, physiological saline were instilled into the bilateral eyes of rabbits in volumes of 10 μl each at 2, 1 and 0.5 hour before peracentesis and using a 27-gauge needle about 200 μl of anterior chamber aqueous humor was collected from each eye (primary aqueous humor). Then, after an interval of 1.5 hours, the aqueous humor was collected again in the same manner (secondary aqueous humor). The protein content of each aqueous sample was determined by the method of Lowry and the increases in the amount of protein (protein content of secondary aqueous humor-protein content of primary aqueous humor) in the respective groups were compared to evaluate the antiinflammatory effect of each test substance.

[2] = test system: back skin of Hartly guinea pigs; assay: Inhibitory effect on ultraviolet-induced erythema; assay type: in vivo; parameters: key to Degree of erythema, After 1 hour, Right / Degree of erythema, After 1 hour, Left / Degree of erythema, After 2 hours, Right / Degree of erythema, After 2 hours, Left: 0: No erythema; 1: Slight erythema; 2: Erythema without a distinct margin; 3: Erythema with a distinct margin
Experimental: Method: The back hairs of Hartly guinea pigs were clipped with an electric clipper and shaved with an electric razor. Then, a cloth with two holes 11 mm in diameter and 4 cm apart was appliedto the back for positioning and a 1 (w/v) % aqueous solution of δ-EPC (adjusted to pH 6.0) and, as control, water were applied 3 times in 100 μl portions each at 1-hour intervals around the sites of said holes over an area 4 cm in diameter. One hour after the final application, said cloth with small holes was applied again and the exposed skin areas was irradiated with ultraviolet rays at 1700 luxes for 360 seconds. Then, after 1 and 2 hours, respectively, the back was grossly examined for erythema. […]
Erythema without a distinct margin
Erythema with a distinct margin

[3] = 1 (w/v) % aqueous solution pH 6.0, 3 x 100 μl, one animal per line, control 2, 2, 2, 2
[4] = 1 (w/v) % aqueous solution pH 6.0, 3 x 100 μl, one animal per line, control 2, 3, 2, 2

Row | SMILES | % Inhibition [1] [%] | Increase in protein [1] | Degree of erythema, After 1 hour, Left [2, 3] | Degree of erythema, After 2 hours, Left [2, 3] | Degree of erythema, After 1 hour, Right [2, 4] | Degree of erythema, After 2 hours, Right [2, 4] | antiinflammatory effect compared with the control group ([2]; UV-induced erythema, guinea pigs)
1 | Cc1cc(OP(=O)(O)OC2=C(O)[C@@H]([C@@H](O)CO)OC2=O)c(C)c2c1OC(C)(CCCC(C)CCCC(C)CCCC(C)C)CC2 (mixture of isomers) [β-EPC, L-Ascorbyl DL-β-tocopheryl phosphate sodium] | 37.3 | 16.0 | – | – | – | – | –
2 | Cc1c(OP(=O)(O)OC2=C(O)[C@@H]([C@@H](O)CO)OC2=O)cc2c(c1C)OC(C)(CCCC(C)CCCC(C)CCCC(C)C)CC2 (mixture of isomers) [γ-EPC, L-Ascorbyl DL-γ-tocopheryl phosphate sodium] | 36.5 | 16.2 | – | – | – | – | –
3 | C[C@@H]1C[C@H]2[C@@H]3CCC4=CC(=O)C=C[C@]4(C)[C@@]3(F)[C@@H](O)C[C@]2(C)[C@@]1(O)C(=O)CO [DEX, Dexamethasone, reference compound] | 18.4 | 20.8 | – | – | – | – | –
4 | Cc1cc(OP(=O)(O)OC2=C(O)[C@@H]([C@@H](O)CO)OC2=O)cc2c1O[C@](C)(CCC[C@H](C)CCC[C@H](C)CCCC(C)C)CC2 [δ-EPC, L-Ascorbyl D-δ-tocopheryl phosphate sodium] | 40.0 | 15.3 | 0 and 1 | 0 and 1 | 1 | 1 | significant antiinflammatory effect
